Measured values as given in ChEMBL document CHEMBL3885881, “DrugMatrix”.

Species on record: Rattus norvegicus
Test: DrugMatrix - Regimen: Daily Repeat
Assay type: toxicity, organism-based, Sprague-Dawley
Parameters: regimen Daily Repeat, gender Male, age 6-8 weeks
Settings: in vivo, po, route oral GAVAGE, […]; for ABSOLUTE BASOPHIL / ABSOLUTE EOSINOPHIL / ABSOLUTE LYMPHOCYTE / ABSOLUTE MONOCYTE / ABSOLUTE SEGMENTED NEUTROPHIL / BASOPHIL / EOSINOPHIL / ERYTHROCYTE COUNT / HEMATOCRIT / HEMOGLOBIN / LEUKOCYTE COUNT / LYMPHOCYTE / MEAN CORPUSCULAR HEMOGLOBIN / MEAN CORPUSCULAR HEMOGLOBIN CONCENTRATION / MEAN CORPUSCULAR VOLUME / MONOCYTE / NEUTROPHIL / NUCLEATED RED BLOOD CELLS / PLATELET COUNT: tissue Blood; for ALANINE AMINOTRANSFERASE / ALBUMIN / ALKALINE PHOSPHATASE / ASPARTATE AMINOTRANSFERASE / BLOOD UREA NITROGEN / CARBON DIOXIDE / CHLORIDE / CHOLESTEROL / CREATINE PHOSPHOKINASE / CREATININE / GLUCOSE / LACTATE DEHYDROGENASE / LIPASE / PHOSPHORUS / POTASSIUM / SODIUM / TOTAL BILIRUBIN / TOTAL PROTEIN / URIC ACID: tissue Plasma
[1] = 0 mg/kg, 72 h, dose level Control, time 3 day
[2] = 0 mg/kg, 120 h, dose level Control, time 5 day
[3] = 100 mg/kg, 72 h, dose level Low, time 3 day

CC(C)(Oc1ccc(Cl)cc1)C(=O)O [CLOFIBRIC ACID]
ABSOLUTE BASOPHIL [1]: 0 CELLS/uL
ABSOLUTE EOSINOPHIL [1]: 0 CELLS/uL
ABSOLUTE LYMPHOCYTE [1]: 14687.67 CELLS/uL
ABSOLUTE MONOCYTE [1]: 164 CELLS/uL
ABSOLUTE SEGMENTED NEUTROPHIL [1]: 1748.33 CELLS/uL
BASOPHIL [1]: 0%
EOSINOPHIL [1]: 0%
ERYTHROCYTE COUNT [1]: 5.51 x10E6/uL
HEMATOCRIT [1]: 33.68%
HEMOGLOBIN [1]: 13.4 G/DL
LEUKOCYTE COUNT [1]: 16.6 x10E3/uL
LYMPHOCYTE [1]: 88.83%
MEAN CORPUSCULAR HEMOGLOBIN [1]: 24.47 pg
MEAN CORPUSCULAR HEMOGLOBIN CONCENTRATION [1]: 39.82 G/DL
MEAN CORPUSCULAR VOLUME [1]: 61.23 fL
MONOCYTE [1]: 0.83%
NEUTROPHIL [1]: 10.33%
NUCLEATED RED BLOOD CELLS [1]: 0 /100WBC
PLATELET COUNT [1]: 1329.67 x10E3/uL
ALANINE AMINOTRANSFERASE [1]: 61.33 u/L
ALBUMIN [1]: 4.18 G/DL
ALKALINE PHOSPHATASE [1]: 332.5 u/L
ASPARTATE AMINOTRANSFERASE [1]: 98.33 u/L
BLOOD UREA NITROGEN [1]: 15.83 mg/dL
CARBON DIOXIDE [1]: 27.83 mmol/L
CHLORIDE [1]: 100 MEQ/L
CHOLESTEROL [1]: 76.17 mg/dL
CREATINE PHOSPHOKINASE [1]: 729.17 u/L
CREATININE [1]: 0.21 mg/dL
GLUCOSE [1]: 151.83 mg/dL
LACTATE DEHYDROGENASE [1]: 484.67 u/L
LIPASE [1]: 10 u/L
PHOSPHORUS [1]: 11.3 mg/dL
POTASSIUM [1]: 6.1 MEQ/L
SODIUM [1]: 142.9 MEQ/L
TOTAL BILIRUBIN [1]: 0.23 mg/dL
TOTAL PROTEIN [1]: 5.68 G/DL
URIC ACID [1]: 1.75 mg/dL
ABSOLUTE BASOPHIL [2]: 0 CELLS/uL
ABSOLUTE EOSINOPHIL [2]: 58.67 CELLS/uL
ABSOLUTE LYMPHOCYTE [2]: 15950.83 CELLS/uL
ABSOLUTE MONOCYTE [2]: 172.5 CELLS/uL
ABSOLUTE SEGMENTED NEUTROPHIL [2]: 2551.33 CELLS/uL
BASOPHIL [2]: 0%
EOSINOPHIL [2]: 0.33%
ERYTHROCYTE COUNT [2]: 5.5 x10E6/uL
HEMATOCRIT [2]: 34.05%
HEMOGLOBIN [2]: 13.42 G/DL
LEUKOCYTE COUNT [2]: 18.73 x10E3/uL
LYMPHOCYTE [2]: 84.5%
MEAN CORPUSCULAR HEMOGLOBIN [2]: 24.42 pg
MEAN CORPUSCULAR HEMOGLOBIN CONCENTRATION [2]: 39.42 G/DL
MEAN CORPUSCULAR VOLUME [2]: 61.97 fL
MONOCYTE [2]: 1%
NEUTROPHIL [2]: 14.17%
NUCLEATED RED BLOOD CELLS [2]: 0.33 /100WBC
PLATELET COUNT [2]: 1143.17 x10E3/uL
ALANINE AMINOTRANSFERASE [2]: 57 u/L
ALBUMIN [2]: 4.17 G/DL
ALKALINE PHOSPHATASE [2]: 347.33 u/L
ASPARTATE AMINOTRANSFERASE [2]: 93.67 u/L
BLOOD UREA NITROGEN [2]: 15.67 mg/dL
CARBON DIOXIDE [2]: 27.17 mmol/L
CHLORIDE [2]: 104.33 MEQ/L
CHOLESTEROL [2]: 69.5 mg/dL
CREATINE PHOSPHOKINASE [2]: 317.17 u/L
CREATININE [2]: 0.2 mg/dL
GLUCOSE [2]: 162.33 mg/dL
LACTATE DEHYDROGENASE [2]: 408.67 u/L
LIPASE [2]: 10.17 u/L
PHOSPHORUS [2]: 11.08 mg/dL
POTASSIUM [2]: 6.36 MEQ/L
SODIUM [2]: 146.07 MEQ/L
TOTAL BILIRUBIN [2]: 0.22 mg/dL
TOTAL PROTEIN [2]: 5.92 G/DL
URIC ACID [2]: 1.47 mg/dL
ABSOLUTE BASOPHIL [3]: 0 CELLS/uL
ABSOLUTE EOSINOPHIL [3]: 83.33 CELLS/uL
ABSOLUTE LYMPHOCYTE [3]: 12714.67 CELLS/uL
ABSOLUTE MONOCYTE [3]: 127.67 CELLS/uL
ABSOLUTE SEGMENTED NEUTROPHIL [3]: 1507.67 CELLS/uL
BASOPHIL [3]: 0%
EOSINOPHIL [3]: 0.67%
ERYTHROCYTE COUNT [3]: 5.9 x10E6/uL
HEMATOCRIT [3]: 36.47%
HEMOGLOBIN [3]: 14.53 G/DL
LEUKOCYTE COUNT [3]: 14.43 x10E3/uL
LYMPHOCYTE [3]: 88%
MEAN CORPUSCULAR HEMOGLOBIN [3]: 24.67 pg
MEAN CORPUSCULAR HEMOGLOBIN CONCENTRATION [3]: 39.87 G/DL
MEAN CORPUSCULAR VOLUME [3]: 61.83 fL
MONOCYTE [3]: 1%
NEUTROPHIL [3]: 10.33%
NUCLEATED RED BLOOD CELLS [3]: 0 /100WBC
PLATELET COUNT [3]: 1176.67 x10E3/uL
ALANINE AMINOTRANSFERASE [3]: 51 u/L
ALBUMIN [3]: 4.33 G/DL
ALKALINE PHOSPHATASE [3]: 364.33 u/L
ASPARTATE AMINOTRANSFERASE [3]: 99.67 u/L
BLOOD UREA NITROGEN [3]: 17 mg/dL
CARBON DIOXIDE [3]: 27 mmol/L
CHLORIDE [3]: 96 MEQ/L
CHOLESTEROL [3]: 62 mg/dL
CREATINE PHOSPHOKINASE [3]: 636.33 u/L
CREATININE [3]: 0.34 mg/dL
GLUCOSE [3]: 180.67 mg/dL
LACTATE DEHYDROGENASE [3]: 303.67 u/L
LIPASE [3]: 9.33 u/L
PHOSPHORUS [3]: 11.9 mg/dL
POTASSIUM [3]: 5.92 MEQ/L
SODIUM [3]: 141 MEQ/L
TOTAL BILIRUBIN [3]: 0.1 mg/dL
TOTAL PROTEIN [3]: 5.8 G/DL
URIC ACID [3]: 2.07 mg/dL
